The text below walks through data of PMC12235220, “Cell‐Penetrating Peptide‐Based Triple Nanocomplex Enables Efficient Nuclear Gene Delivery in Chlamydomonas reinhardtii” (Biotechnology and Bioengineering, 2025).

The subject of the experiment is C. reinhardtii cells. Put plainly: Cellular uptake mechanism of triple nanocomplexes with the endocytosis inhibitor wortmannin. It counts as cell-based, Chlamydomonas reinhardtii. To be noted: wortmannin 33 µM pretreatment 1 h, then pVEC-R6A/Cy3-labeled DNA/SV40 nanocomplex 1 h at 25°C; control TAP with 5% DMSO; microplate reader. The protocol:
To evaluate the cellular uptake mechanism of the triple nanocomplexes in microalgae, a fluorescence‐based assay was performed with wortmannin (Sigma‐Aldrich, USA) to determine the potential involvement of endocytosis in the process. A volume of 100 µL of C. reinhardtii cells (1.5 × 10^7 cells mL^−1) per well was seeded in a 96‐well plate with wortmannin at a final concentration of 33 µM. Cells treated with TAP medium containing 5% dimethyl sulfoxide were used as controls. […] Finally, the Cy3 fluorescence intensity of the samples was measured at 532 nm using a TECAN microplate reader (Bionics, Korea).

With `COC[C@H]1OC(=O)c2coc3c2[C@@]1(C)C1=C(C3=O)[C@@H]2CCC(=O)[C@@]2(C)C[C@H]1OC(C)=O` [wortmannin], the “Reduction of normalized Cy3/chlorophyll a level compared to control” value is 50%.
